In US9469650B2, “Melampomagnolide B derivatives” (BOARD OF TRUSTEES OF THE UNIVERSITY OF ARKANSAS, priority 2013, dated 2016):
Where two headings read alike, the source gives them in different places.

What was measured:
K-562 = experiment: panel of 60 human tumor cell lines, growth inhibition (Leukemia); details: for CC50: K562, read-out: LC50; for Percent Growth / TGI: K-562; for TGI: NCI five dose
UACC-62 = experiment: panel of 60 human tumor cell lines, growth inhibition (Melanoma); details: Homo sapiens; for GI50: UACC-62; for CC50: UACC-62, read-out: LC50; for IC (TGI): UACC-62, read-out: TGI
BT-549 = experiment: panel of 60 human tumor cell lines, growth inhibition (Breast Cancer); details: Homo sapiens; for GI50: BT-549; for CC50: BT-549, read-out: LC50; for IC (TGI): BT-549, read-out: TGI
DU-145 = experiment: panel of 60 human tumor cell lines, growth inhibition (Prostate Cancer); details: Homo sapiens; for GI50: DU-145; for CC50: DU-145, read-out: LC50; for IC (TGI): DU-145, read-out: TGI
NCI-H226 = experiment: panel of 60 human tumor cell lines, growth inhibition (Non-Small Cell Lung Cancer); details: Homo sapiens; for GI50: NCI-H226; for CC50: NCI-H226, read-out: LC50; for IC (TGI): NCI-H226, read-out: TGI
SK-OV-3 = experiment: panel of 60 human tumor cell lines, growth inhibition (Ovarian Cancer); details: Homo sapiens; for GI50: SK-OV-3; for CC50: SK-OV-3, read-out: LC50; for IC (TGI): SK-OV-3, read-out: TGI
SK-MEL-2 = experiment: panel of 60 human tumor cell lines, growth inhibition (Melanoma); details: Homo sapiens; for GI50: SK-MEL-2; for CC50: SK-MEL-2, read-out: LC50; for IC (TGI): SK-MEL-2, read-out: TGI
SNB-75 = experiment: panel of 60 human tumor cell lines, growth inhibition (CNS Cancer); details: Homo sapiens; for GI50: SNB-75; for CC50: SNB-75, read-out: LC50; for IC (TGI): SNB-75, read-out: TGI
RXF 393 = experiment: panel of 60 human tumor cell lines, growth inhibition (Renal Cancer); details: Homo sapiens; for GI50: RXF 393, RXF 393, NCI five dose; for CC50: RXF 393, read-out: LC50; for IC (TGI): RXF 393, read-out: TGI
MCF7 = experiment: panel of 60 human tumor cell lines, growth inhibition (Breast Cancer); details: Homo sapiens; for GI50: MCF7, MCF7, NCI five dose; for CC50: MCF7, read-out: LC50; for IC (TGI): MCF7, read-out: TGI
M14 = experiment: panel of 60 human tumor cell lines, growth inhibition (Melanoma); details: Homo sapiens; for GI50: M14; for CC50: M14, read-out: LC50; for IC (TGI): M14, read-out: TGI
HCT-116 = experiment: panel of 60 human tumor cell lines, growth inhibition (Colon Cancer); details: Homo sapiens; for GI50: HCT-116, HCT-116, NCI five dose; for CC50: HCT-116, read-out: LC50; for IC (TGI): HCT-116, read-out: TGI
UO-31 = experiment: panel of 60 human tumor cell lines, growth inhibition (Renal Cancer); details: Homo sapiens; for GI50: UO-31; for CC50: UO-31, read-out: LC50; for IC (TGI): UO-31, read-out: TGI
OVCAR-3 = experiment: panel of 60 human tumor cell lines, growth inhibition (Ovarian Cancer); details: for GI50 / Percent Growth: OVCAR-3; for CC50: OVCAR-3, read-out: LC50
786-0 = experiment: panel of 60 human tumor cell lines, growth inhibition (Renal Cancer); details: Homo sapiens; for GI50: 786-0; for CC50: 786-0, read-out: LC50; for IC (TGI): 786-0, read-out: TGI
NCI-H322M = experiment: panel of 60 human tumor cell lines, growth inhibition (Non-Small Cell Lung Cancer); details: Homo sapiens; for CC50: read-out: LC50; for IC (TGI): read-out: TGI
HCT-15 = experiment: panel of 60 human tumor cell lines, growth inhibition (Colon Cancer); details: Homo sapiens; for GI50: HCT-15; for CC50: HCT-15, read-out: LC50; for IC (TGI): HCT-15, read-out: TGI

With `C=C1C(=O)O[C@H]2[C@H]1CC/C(COC(=S)n1ccnc1)=C\CC[C@@]1(C)O[C@@H]21` [JVM 66] the CC50 (K-562; Homo sapiens) was > 100 µM, the “Percent Growth” value (K-562; Log10 Concentration −4.0) was 1% and the “Percent Growth” value (K-562; Log10 Concentration −5.0) was 16%. The “Percent Growth” value (K-562; Log10 Concentration −6.0) was 100%, the “Percent Growth” value (K-562; Log10 Concentration −7.0) was 90% and the “Percent Growth” value (K-562; Log10 Concentration −8.0) was 96%. For the same compound, the TGI (K-562) was >1.00E−4, the GI50 (UACC-62) was 13.9 µM and the CC50 (UACC-62) was 74.8 µM. The IC (TGI) (UACC-62) was 32.3 µM, the GI50 (BT-549) was 18.3 µM and the CC50 (BT-549) was > 100 µM. For the same compound, the IC (TGI) (BT-549) was 68 µM, the GI50 (DU-145) was 12.2 µM and the CC50 (DU-145) was 59.1 µM. For the same compound, the IC (TGI) (DU-145) was 26.9 µM, the GI50 (NCI-H226) was 99.6 µM and the CC50 (NCI-H226) was > 100 µM. For the same compound, the IC (TGI) (NCI-H226) was > 100 µM, the GI50 (SK-OV-3) was 61.4 µM and the CC50 (SK-OV-3) was > 100 µM. For the same compound, the IC (TGI) (SK-OV-3) was > 100 µM, the “Percent Growth” value (HL-60(TB); Log10 Concentration −4.0) was −62% and the “Percent Growth” value (HL-60(TB); Log10 Concentration −5.0) was 16%. The “Percent Growth” value (HL-60(TB); Log10 Concentration −6.0) was 102%, the “Percent Growth” value (HL-60(TB); Log10 Concentration −7.0) was 101% and the “Percent Growth” value (HL-60(TB); Log10 Concentration −8.0) was 95%. For the same compound, the GI50 (SK-MEL-2) was 16.4 µM, the CC50 (SK-MEL-2) was 93 µM and the IC (TGI) (SK-MEL-2) was 39.6 µM. The GI50 (SNB-75) was 39.3 µM, the CC50 (SNB-75) was > 100 µM and the IC (TGI) (SNB-75) was > 106 µM. It also gave a GI50 (RXF 393) of 3.08 µM, a CC50 (RXF 393) of 57.4 µM and an IC (TGI) (RXF 393) of 11.4 µM. For the same compound, the GI50 (MCF7) was 4.19 µM, the CC50 (MCF7) was 76.7 µM and the IC (TGI) (MCF7) was 19.8 µM. It also gave a GI50 (M14) of 12.6 µM, a CC50 (M14) of 89.2 µM and an IC (TGI) (M14) of 33.6 µM. It also gave a GI50 (HCT-116) of 2.47 µM, a CC50 (HCT-116) of 33 µM and an IC (TGI) (HCT-116) of 7.03 µM. For the same compound, the GI50 (UO-31) was 8.37 µM, the CC50 (UO-31) was 58.1 µM and the IC (TGI) (UO-31) was 23.4 µM. For the same compound, the GI50 (OVCAR-3; Homo sapiens) was 10.4 µM, the CC50 (OVCAR-3; Homo sapiens) was 49.2 µM and the “Percent Growth” value (OVCAR-3; Log10 Concentration −4.0) was −96%. For the same compound, the “Percent Growth” value (OVCAR-3; Log10 Concentration −5.0) was 53%, the “Percent Growth” value (OVCAR-3; Log10 Concentration −6.0) was 103% and the “Percent Growth” value (OVCAR-3; Log10 Concentration −7.0) was 130%. For the same compound, the “Percent Growth” value (OVCAR-3; Log10 Concentration −8.0) was 101%, the GI50 (786-0) was 16.8 µM and the CC50 (786-0) was 85.7 µM. The IC (TGI) (786-0) was 37.9 µM, the GI50 (NCI-H322M) was 69.5 µM and the CC50 (NCI-H322M) was > 100 µM. It also gave an IC (TGI) (NCI-H322M) of 106 µM, a GI50 (HCT-15) of 6.88 µM and a CC50 (HCT-15) of 89.2 µM. For the same compound, the IC (TGI) (HCT-15) was 27.1 µM.
With `C=C1C(=O)O[C@H]2[C@H]1CC/C(COC(=O)NCCCCCCO)=C\CC[C@@]1(C)O[C@@H]21` [JVM 2-31] the GI50 (K-562; Homo sapiens, K562) was 4.96 µM, the CC50 (K-562; Homo sapiens) was > 100 µM and the “Percent Growth” value (K-562; Log10 Concentration −4.0) was −33%. For the same compound, the “Percent Growth” value (K-562; Log10 Concentration −5.0) was 28%, the “Percent Growth” value (K-562; Log10 Concentration −6.0) was 101% and the “Percent Growth” value (K-562; Log10 Concentration −7.0) was 113%. For the same compound, the “Percent Growth” value (K-562; Log10 Concentration −8.0) was 102%, the TGI (K-562) was 2.88E−5 and the GI50 (UACC-62) was 6.78 µM. The CC50 (UACC-62) was 53.4 µM, the IC (TGI) (UACC-62) was 21.4 µM and the GI50 (BT-549) was 2.86 µM. It also gave a CC50 (BT-549) of 43.4 µM, an IC (TGI) (BT-549) of 17.4 µM and a GI50 (DU-145) of 3.68 µM. For the same compound, the CC50 (DU-145) was 39.4 µM, the IC (TGI) (DU-145) was 14.3 µM and the GI50 (NCI-H226) was 4.92 µM. It also gave a CC50 (NCI-H226) of 87.2 µM, an IC (TGI) (NCI-H226) of 23.9 µM and a GI50 (SK-OV-3) of 28.6 µM. For the same compound, the CC50 (SK-OV-3) was > 100 µM, the IC (TGI) (SK-OV-3) was 69.9 µM and the “Percent Growth” value (HL-60(TB); Log10 Concentration −4.0) was −49%. For the same compound, the “Percent Growth” value (HL-60(TB); Log10 Concentration −5.0) was 9%, the “Percent Growth” value (HL-60(TB); Log10 Concentration −6.0) was 103% and the “Percent Growth” value (HL-60(TB); Log10 Concentration −7.0) was 107%. The “Percent Growth” value (HL-60(TB); Log10 Concentration −8.0) was 115%, the GI50 (SK-MEL-2) was 14.4 µM and the CC50 (SK-MEL-2) was 70.4 µM. It also gave an IC (TGI) (SK-MEL-2) of 31.9 µM, a GI50 (SNB-75) of 5.84 µM and a CC50 (SNB-75) of 45.6 µM. It also gave an IC (TGI) (SNB-75) of 20.1 µM, a GI50 (RXF 393) of 1.24 µM and a CC50 (RXF 393) of 40.2 µM. The IC (TGI) (RXF 393) was 9.75 µM, the GI50 (MCF7) was 4.92 µM and the CC50 (MCF7) was 76.3 µM. For the same compound, the IC (TGI) (MCF7) was 12 µM, the GI50 (M14) was 4.5 µM and the CC50 (M14) was 46.7 µM. For the same compound, the IC (TGI) (M14) was 17.4 µM, the GI50 (HCT-116) was 2.78 µM and the CC50 (HCT-116) was 34 µM. For the same compound, the IC (TGI) (HCT-116) was 11 µM, the GI50 (UO-31) was 5.91 µM and the CC50 (UO-31) was 62.6 µM. The IC (TGI) (UO-31) was 21.2 µM, the GI50 (OVCAR-3; Homo sapiens) was 3.4 µM and the CC50 (OVCAR-3; Homo sapiens) was 36 µM. For the same compound, the IC (TGI) (OVCAR-3; Homo sapiens, OVCAR-3, read-out: TGI) was 12.1 µM, the “Percent Growth” value (OVCAR-3; Log10 Concentration −4.0) was −97% and the “Percent Growth” value (OVCAR-3; Log10 Concentration −5.0) was 9%. The “Percent Growth” value (OVCAR-3; Log10 Concentration −6.0) was 97%, the “Percent Growth” value (OVCAR-3; Log10 Concentration −7.0) was 111% and the “Percent Growth” value (OVCAR-3; Log10 Concentration −8.0) was 105%. The GI50 (786-0) was 2.99 µM, the CC50 (786-0) was 43.7 µM and the IC (TGI) (786-0) was 13.1 µM. For the same compound, the GI50 (NCI-H322M) was 32.2 µM, the CC50 (NCI-H322M) was > 100 µM and the IC (TGI) (NCI-H322M) was 89 µM. The GI50 (HCT-15) was 2.56 µM, the CC50 (HCT-15) was 49.5 µM and the IC (TGI) (HCT-15) was 12.1 µM.
